Values quoted from earlier work as cited in patent US20240318128A1, “BIOFUNGICIDE PRODUCTION BY CONIOCHAETA AND APPLICATION IN CONTROL OF EARLY BLIGHT OF POTATO” (The United States of America, as represented by the …, priority 2023, published 2024).

Test system: yeast and bacteria
Settings: Segeth et al. 2003

For coniocetin, the spectrum of inhibition is listed as “inhibits”.
